Source: paper PMC12040169 (PLOS Biology, 2025)

Test: in vitro
Details: human, hela cells, % viability

| Structure (SMILES) | viability at 28.5 h, 10 µM [%] |
| --- | --- |
| Cc1csc2ncc(C(=O)Nc3ccccc3C#N)c(=O)n12 [CBK287458] | 95.3 |
| CCOc1ccccc1CNCc1ccccn1 [CBK268041C] | 103 |
| O=C1c2ccccc2C(=O)N1Cc1ccc(S(=O)(=O)NCc2ccc3c(c2)OCO3)cc1 [CBK264180] | 98.3 |
| Cc1cc(C(=O)Nc2sc(C)c(C)c2C(=O)NCc2cccnc2)no1 [CBK268134] | 100 |
| O=C1CCCN1CCOc1nccnc1-c1cc2ccccc2s1 [CBK106780] | 91 |
| Clc1cc(CSc2nnnn2-c2ccccc2)cc2c1OCCCO2 [CBK297159] | 92.5 |
| Cc1noc(C)c1C(=O)N1CCCCCC1c1ccn(C)n1 (stereo not shown) [CBK284917] | 90.8 |
| COc1ccc(/C=C/C(=O)C2CC2)c(C(=O)O)c1OC [CBK286639] | 97 |
| FC(F)(F)Oc1ccc(-c2c[nH]c([C@@H]3COCCN3C3CCNCC3)n2)cc1 [CBK289312] | 97.8 |
| COCCNc1nc(-c2cccc(F)c2)cn2ccnc12 [CBK066465] | 98.4 |
| Cc1cc(NC(=O)c2ccc(Br)cc2)nc2c1c(=O)oc1ccccc12 [CBK291262] | 102 |
| Nc1ncc(-c2ccc(C(=O)N3CCOCC3)cc2)nc1-c1ccc(Cl)s1 [CBK138510] | 93.6 |
| CCOC(=O)c1c(NC(=O)c2cc(-c3ccc(C)c(C)c3)nc3ccccc23)sc2c1CCC(C)C2 (stereo not shown) [CBK262627] | 96.4 |
| COc1cc([C@@H]2c3cc4c(cc3[C@H](O)[C@H]2C(=O)Nc2ccccc2)OCO4)cc(OC)c1OC [CBK200106] | 101 |
| Cc1cc(C)n(CC(=O)NC(CC(=O)O)c2ccccc2Cl)n1 (stereo not shown) [CBK305695] | 106 |
| Cc1cc(Cn2ccc(C(F)(F)F)n2)c(C)c(-c2c(C#N)c(N)nc3c2CCCCC3)c1 [CBK267928] | 104 |
| Cn1c(CN2CCCC2)nc2cc(NC(=O)c3cccc([N+](=O)[O-])c3)ccc21 [CBK268316] | 98.6 |
| COC(=O)CCCCCSc1nc2ccc(O)c([N+](=O)[O-])c2s1 [CBK005867] | 106 |
| CCOc1cc2c(cc1OCC)C(c1ccc(OC)c(O)c1)NCC2 (stereo not shown) [CBK074443C] | 88.7 |
| Cc1c(C(=O)O)sc2ncn(CCCOc3ccc(Cl)cc3)c(=O)c12 [CBK286695] | 106 |
| O=C(CCS(=O)(=O)Cc1ccccc1)n1nnc2ccccc21 [CBK268324] | 99.4 |
| O=C(CC1CCCC1)N1CCCC(c2nnc(-c3cccs3)o2)C1 (stereo not shown) [CBK284631] | 94.3 |

| Structure (SMILES) | viability at 28.5 h, 10 µM [%] |
| --- | --- |
| CCOC(=O)Cc1csc(SC(C)C(=O)N2CCNC2=O)n1 (stereo not shown) [CBK304551] | 106 |
| O=C(O)C1CCCCN1S(=O)(=O)c1ccc(Cl)cc1 (stereo not shown) [CBK077418] | 91.6 |
| C=CCn1c2ccccc2c2nnc(SCc3ccc([N+](=O)[O-])cc3)nc21 [CBK265630] | 92.5 |
| COc1ccc2[nH]cc(CC(=O)N3CCCC4(CCN(Cc5ccccc5)C4)C3)c2c1 (stereo not shown) [CBK136883] | 93.5 |
| Cn1cnc(C(=O)N2CCC[C@@H]3NC(=O)c4ccccc4OCCCCC[C@@H]32)c1 [CBK292122] | 114 |
| COc1ccc(CC(=O)Nc2ccc3n(c2=O)C[C@H]2C[C@@H]3CN(C(C)=O)C2)cc1 [CBK289203] | 99.1 |
| Cc1ccc(C(=O)NC(CC(C)C)c2nnc3n2CCNCC3)c(F)c1 (stereo not shown) [CBK306817] | 85 |
| CCOC(=O)N1CCC(NC(=O)N(CCc2ccccc2)Cc2ccccc2)CC1 [CBK155359] | 107 |
| CC(C)NC(=O)N[C@H]1CCN2C(=O)c3cc(-c4ccc(F)cc4F)ccc3NC(=O)[C@H]12 [CBK289346] | 86.8 |
| CC(=O)N1c2ccc(-c3cn4ccc(C)cc4n3)cc2CC1C (stereo not shown) [CBK285191] | 79.2 |
| COc1ccc(-c2ccccc2)cc1NS(=O)(=O)c1ccc2c(c1)CCC(=O)N2 [CBK286368] | 100 |
| Cn1c(=O)[nH]c(=O)c2c1nc(N1CCCCC1)n2CCCSc1nc2ccccc2s1 [CBK269550] | 103 |
| O=C(NC(=S)Nc1cccc(-c2nc3ccccc3s2)c1)c1cc([N+](=O)[O-])ccc1N1CCOCC1 [CBK268789] | 103 |
| O=C(CS(=O)(=O)Cc1ccccc1)Nc1ccc(S(=O)(=O)N2CCOCC2)cc1 [CBK266658] | 88.8 |
| O=C(NCCSCc1ccc(Cl)cc1Cl)c1ccc(Br)cc1 [CBK264733] | 114 |
| CCOC(=O)c1sc(-c2cccc(C(F)(F)F)c2)nc1O [CBK075064] | 92 |
| Cc1ccc(CN(CCCN(C)C)Cc2nc(C)n3ccccc23)o1 [CBK282482] | 106 |
| COc1ccccc1C(=O)Nc1nc2ccc(NC(C)=O)cc2s1 [CBK287303] | 88.3 |
| Cc1c(C(=O)N2CCN(C3CCN(C)CC3)CC2)nnn1-c1cccc(C(F)(F)F)c1 [CBK149088] | 94.2 |
| O=C1CC[C@@H](NCc2ccccc2O)[C@H](c2cc(F)cc(F)c2)N1 [CBK283126] | 107 |
| Cc1ccc(C(=O)Nc2cc(C)nn2C)c(N2CCOCC2)n1 [CBK106221] | 104 |
